Measurements from article PMC6598531, “Appraisal of anti-protozoan activity of nitroaromatic benzenesulfonamides inhibiting carbonic anhydrases from Trypanosoma cruzi and Leishmania donovani” (Journal of Enzyme Inhibition and Medicinal Chemistry, 2019).
≈ marks a conversion by molar mass, not a printed value. Like-named read-outs stand apart in the source and are kept apart here.

Key:
L. amazonensis = experiment: growth inhibition of L. amazonensis promastigotes (resazurin); type: cell-based; conditions: Leishmania amazonensis, 48 h; for MIC: promastigotes, 28 °C
in vitro = conditions: mouse, RAW 264.7 macrophages
L. infantum = experiment: growth inhibition of L. infantum promastigotes (resazurin); type: cell-based; conditions: Leishmania infantum, 48 h; for MIC: promastigotes, 28 °C
T. cruzi Y = experiment: growth inhibition of T. cruzi Y epimastigotes (resazurin); type: cell-based; conditions: Trypanosoma cruzi, 48 h, 28 °C
T. cruzi Dm 28c = experiment: growth inhibition of T. cruzi Dm28c epimastigotes (resazurin); type: cell-based; conditions: Trypanosoma cruzi, 48 h; for MIC: epimastigotes, 28 °C
LdcCA = LdcCA (Leishmania infantum, UniProt A4HSV2); experiment: biochemical
Sequence of LdcCA (A4HSV2 1-306): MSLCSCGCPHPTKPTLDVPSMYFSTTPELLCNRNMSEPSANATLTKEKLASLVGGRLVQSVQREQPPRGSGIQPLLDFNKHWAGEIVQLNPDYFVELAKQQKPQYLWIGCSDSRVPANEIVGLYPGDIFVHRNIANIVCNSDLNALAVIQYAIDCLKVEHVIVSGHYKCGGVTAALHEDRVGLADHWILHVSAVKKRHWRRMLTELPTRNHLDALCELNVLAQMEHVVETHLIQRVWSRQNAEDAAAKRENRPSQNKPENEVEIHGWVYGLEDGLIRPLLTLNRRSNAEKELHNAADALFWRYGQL

hCA II = hCA II (Homo sapiens, UniProt P00918); experiment: stopped flow CO2 hydrase assay, hCA II inhibition
hCA I = hCA I (Homo sapiens, UniProt P00915); experiment: stopped flow CO2 hydrase assay, hCA I inhibition
Sequence of hCA I (P00915 whole entry): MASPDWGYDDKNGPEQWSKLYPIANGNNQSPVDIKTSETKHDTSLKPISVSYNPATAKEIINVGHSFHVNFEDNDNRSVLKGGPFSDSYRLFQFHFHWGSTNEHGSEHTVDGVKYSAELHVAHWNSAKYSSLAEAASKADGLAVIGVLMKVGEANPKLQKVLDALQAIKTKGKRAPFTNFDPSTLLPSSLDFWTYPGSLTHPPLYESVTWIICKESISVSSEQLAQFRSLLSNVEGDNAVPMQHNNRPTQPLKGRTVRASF

[1] = concentration which reduced the number of promastigotes by 50%
[2] = read-out: KI hCA II, stopped flow CO2 hydrase assay, mean from three assays
[3] = read-out: KI hCA I, stopped flow CO2 hydrase assay, mean from three assays

| IC50 (L. amazonensis; [1]) [nM] | IC50 (L. infantum; [1]) [nM] | IC50 (T. cruzi Dm 28c; concentration which reduced the proliferation of epimastigotes by 50%) [nM] | Structure (SMILES) | MIC (L. amazonensis) [µM] | CC50 at 48 h (in vitro) [nM] | MIC (L. infantum) [µM] | MIC (T. cruzi Y) [µM] | MIC (T. cruzi Dm 28c) [µM] | SI (KI1/KI2) CA I/LdcCA (LdcCA) | SI (KI1/KI2) CA II/LdcCA (LdcCA) | Ki (LdcCA; read-out: KI LdCA) [nM] | Ki (hCA II; [2]) [nM] | Ki (hCA I; [3]) [nM] | Ki (LdcCA) [nM] | Ki (hCA I) [nM] | Ki (hCA II) [nM] |
| --- | --- | --- | --- | --- | --- | --- | --- | --- | --- | --- | --- | --- | --- | --- | --- | --- |
| 1650 ± 280 | 1770 ± 350 |  | C[C@@H]1[C@H](O)[C@@H](C)/C=C/C=C/C=C/C=C/C=C/C=C/C=C/[C@H](O[C@@H]2O[C@H](C)[C@@H](O)[C@H](N)[C@@H]2O)C[C@@H]2O[C@](O)(C[C@@H](O)C[C@@H](O)[C@H](O)CC[C@@H](O)C[C@@H](O)CC(=O)O[C@H]1C)C[C@H](O)[C@H]2C(=O)O [Amp, amphotericin B, reference compound] | 8 (≈ 7.39 µg/mL) | 1000 | 8 (≈ 7.39 µg/mL) |  |  |  |  |  |  |  |  |  |  |
|  |  | 16600 ± 1510 | O=C(Cn1ccnc1[N+](=O)[O-])NCc1ccccc1 [Bzn, benznidazole, reference compound] |  | 115000 ± 9480 |  | 32 (≈ 8.33 µg/mL) | 32 (≈ 8.33 µg/mL) |  |  |  |  |  |  |  |  |
|  |  |  | NS(=O)(=O)c1ccc(O)c([N+](=O)[O-])c1 [Compound 4] | > 400 | 97600 ± 11100 | > 400 | > 256 | > 256 | 4.3 | 1.1 | 210 | 240 | 910 |  |  |  |
|  |  |  | NS(=O)(=O)c1cc([N+](=O)[O-])c(OC(=O)c2ccccc2)c([N+](=O)[O-])c1 [Compound 7] |  |  |  |  |  | 1.0 | 0.2 |  | 840 | 4790 | 4680 |  |  |
|  |  |  | Nc1cc(S(N)(=O)=O)cc([N+](=O)[O-])c1O [Compound 8, 3-amino-4-hydroxy-5-nitro-benzenesulfonamide] | > 400 | > 256000 | > 400 | > 256 | > 256 | 13.4 | 1.3 | 460 | 610 | 6180 |  |  |  |
|  |  |  | NS(=O)(=O)c1cc(NC(=O)c2ccccc2)c(OC(=O)c2ccccc2)c([N+](=O)[O-])c1 [Compound 9] |  |  |  |  |  | 0.4 | 0.1 | 3870 | 390 | 1380 |  |  |  |
|  |  |  | NS(=O)(=O)c1cc(NC(=O)c2ccc(F)cc2)c(OC(=O)c2ccc(F)cc2)c([N+](=O)[O-])c1 [Compound 10] | > 400 | 180000 ± 21300 | > 400 | > 256 | > 256 | 0.3 | 0.1 | 8490 | 460 | 2920 |  |  |  |
|  |  |  | Cc1cc(C)[n+](-c2cc(S(N)(=O)=O)cc([N+](=O)[O-])c2O)c(C)c1 [Compound 11] | > 400 | > 256000 | > 400 | > 256 | > 256 | >7.6 | 0.3 | 6570 | 1810 |  |  | > 50000 |  |
|  |  |  | NS(=O)(=O)c1cc(O)c(O)c([N+](=O)[O-])c1 [Compound 12] |  |  |  |  |  | 15.9 | 1.6 | 390 | 640 | 6210 |  |  |  |
|  |  |  | NS(=O)(=O)c1cc(NC(=O)Nc2ccccc2)c(O)c([N+](=O)[O-])c1 [Compound 13] |  |  |  |  |  | >47.2 | 2.6 | 1060 | 2780 |  |  |  |  |
|  |  |  | NS(=O)(=O)c1cc(NC(=O)Nc2ccc(F)cc2)c(O)c([N+](=O)[O-])c1 [Compound 14] |  |  |  |  |  | 5.5 | 0.5 | 980 | 530 | 5390 |  |  |  |
|  |  |  | NS(=O)(=O)c1cc(NC(=O)Nc2ccc(C(F)(F)F)cc2)c(O)c([N+](=O)[O-])c1 [Compound 15] |  |  |  |  |  | 2.2 | 0.1 | 2340 |  | 5200 |  |  | 240 |
|  |  |  | Cc1cc(NC(=O)Nc2cc(S(N)(=O)=O)cc([N+](=O)[O-])c2O)ccc1F [Compound 16] |  |  |  |  |  | 2.6 | 0.1 | 2960 | 210 | 7580 |  |  |  |
|  |  |  | NS(=O)(=O)c1cc(NC(=O)Nc2c(F)c(F)c(F)c(F)c2F)c(O)c([N+](=O)[O-])c1 [Compound 17] | > 400 | > 256000 | > 400 | > 256 | > 256 | 0.5 | 0.2 | 1360 | 270 | 690 |  |  |  |
|  |  |  | COc1cccc(NC(=O)Nc2cc(S(N)(=O)=O)cc([N+](=O)[O-])c2O)c1 [Compound 18] | > 400 | > 256000 | > 400 | > 256 | > 256 | 8.6 | 5.4 | 950 | 5150 | 8210 |  |  |  |
|  |  |  | NS(=O)(=O)c1cc(NC(=O)Nc2ccc3c(c2)OCO3)c(O)c([N+](=O)[O-])c1 [Compound 19] | > 400 | 173000 ± 10400 | > 400 | > 256 | > 256 | >24.6 | 2.1 | 2030 | 4330 |  |  |  |  |
|  |  |  | Cc1cc(C)cc(NC(=O)Nc2cc(S(N)(=O)=O)cc([N+](=O)[O-])c2O)c1 [Compound 20] |  |  |  |  |  | 4.5 | 0.2 | 1860 | 450 | 8330 |  |  |  |
|  |  |  | NS(=O)(=O)c1cc(NC(=O)Nc2cc(C(F)(F)F)cc(C(F)(F)F)c2)c(O)c([N+](=O)[O-])c1 [Compound 21] | > 400 | > 256000 | > 400 | > 256 | > 256 | 1.6 | 0.5 | 3650 | 1720 | 5990 |  |  |  |
|  |  |  | NS(=O)(=O)c1cc(NC(=O)NCCc2ccccc2)c(O)c([N+](=O)[O-])c1 [Compound 22] |  |  |  |  |  | 10.8 | 3.6 | 860 | 3080 | 9290 |  |  |  |
|  |  |  | NS(=O)(=O)c1cc(NC(=O)NCc2ccco2)c(O)c([N+](=O)[O-])c1 [Compound 23] |  |  |  |  |  | >49.0 | 2.5 | 1020 | 2530 |  |  |  |  |
|  |  |  | CC(=O)OC[C@@H]1O[C@@H](OC(C)=O)[C@@H](NC(=O)Nc2cc(S(N)(=O)=O)cc([N+](=O)[O-])c2O)[C@H](OC(C)=O)[C@H]1OC(C)=O [Compound 24] | > 400 | > 256000 | > 400 | > 256 | > 256 | 1.6 | 0.5 | 3640 | 1890 | 5670 |  |  |  |
|  |  |  | NS(=O)(=O)c1cc(NC(=O)N[C@@H]2C(O)O[C@@H](CO)[C@H](O)[C@H]2O)c(O)c([N+](=O)[O-])c1 (stereo partly shown) [Compound 25] |  |  |  |  |  | 1.7 | 0.3 | 2970 | 860 | 4920 |  |  |  |
